Assay results published in ChEMBL document CHEMBL1201862, “PubChem BioAssay data set” (2004).
Active and inactive are the calls of the source.

Legend:
[1] = target: G-protein coupled receptor 55 (Homo sapiens, UniProt Q9Y2T6); assay: inhibition of LPI-stimulated GPR55 beta-arrestin translocation – imaging, U2OS, beta-arrestin-GFP, LPI agonist, primary screen (AID 2013); type: functional;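 further: antagonist potency measured as reduced agonist-driven arrestin aggregation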
Cryptococcus neoformans = assay: PubChem AID 686997; type: functional, organism-based
BJ [2] = assay: BJ-TERT fibroblast viability loss – cell-based, RAS-independent, luminescence, dose response (AID 1933); type: functional; details: Homo sapiens
BJ [3] = assay: cells; type: functional, cell-based; details: Homo sapiens
BJ [4] = assay: BJ-TERT-LT-ST fibroblast viability loss – cell-based, RAS-independent, luminescence, dose response (AID 1935); type: functional; details: Homo sapiens;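 further: BJ fibroblasts immortalized with TERT plus LT and ST oncogenes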
[5] = DRD fibroblast viability loss – cell-based, non-viral oncogenic, luminescence, dose response (AID 1934); type: functional; details: Homo sapiens
[6] = target: Glutathione S-transferase omega-1 (Homo sapiens, UniProt P78417); assay: IC50 of human GSTO1 inhibition by gel ABPP – biochemical, SE-Rh probe, in-gel fluorescence, powder samples, late-stage follow-up (AID 463081); type: functional
[7] = Intein inhibitors as potential Tuberculosis drugs, a cytotoxicity screen. [Related pubchem assays (depositor defined):AID2221, AID2223, AID434968, AID435010, AID449749, AID449750, AID489010]; type: functional
[8] = target: T1, Microphthalmia-associated transcription factor (Homo sapiens, UniProt O75030); assay: reducers of TRPM1 reporter luminescence, concentration series – cell-based, SK-MEL-5, cherry-picked, set 3, MITF inhibitor project, dose response (AID 493073); type: functional;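 further: SK-MEL-5 melanoma cells with luciferase driven by the MITF target TRPM1 promoter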
T1 sequence (O75030 whole entry): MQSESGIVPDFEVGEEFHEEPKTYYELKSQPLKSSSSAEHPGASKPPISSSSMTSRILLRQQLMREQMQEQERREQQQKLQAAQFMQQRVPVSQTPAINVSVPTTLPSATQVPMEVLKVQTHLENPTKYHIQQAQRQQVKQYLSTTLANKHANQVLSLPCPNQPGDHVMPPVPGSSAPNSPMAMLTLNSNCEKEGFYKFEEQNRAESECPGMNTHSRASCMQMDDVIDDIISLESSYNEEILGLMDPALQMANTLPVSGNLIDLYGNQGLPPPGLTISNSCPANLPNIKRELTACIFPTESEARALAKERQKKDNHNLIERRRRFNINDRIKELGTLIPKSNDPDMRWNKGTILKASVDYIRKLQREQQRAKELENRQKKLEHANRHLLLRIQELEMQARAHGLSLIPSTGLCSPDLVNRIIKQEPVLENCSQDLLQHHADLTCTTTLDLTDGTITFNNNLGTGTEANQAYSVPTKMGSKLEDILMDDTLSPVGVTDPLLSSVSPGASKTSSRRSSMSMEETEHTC

[9] = target: T2, Replicative DNA helicase DnaB (Mycobacterium tuberculosis, UniProt P9WMR3); assay: DnaB intein splicing inhibitors, dose response, biochemical, cell-free fluorescence (AID 449749); type: functional
T2 sequence (P9WMR3 whole entry): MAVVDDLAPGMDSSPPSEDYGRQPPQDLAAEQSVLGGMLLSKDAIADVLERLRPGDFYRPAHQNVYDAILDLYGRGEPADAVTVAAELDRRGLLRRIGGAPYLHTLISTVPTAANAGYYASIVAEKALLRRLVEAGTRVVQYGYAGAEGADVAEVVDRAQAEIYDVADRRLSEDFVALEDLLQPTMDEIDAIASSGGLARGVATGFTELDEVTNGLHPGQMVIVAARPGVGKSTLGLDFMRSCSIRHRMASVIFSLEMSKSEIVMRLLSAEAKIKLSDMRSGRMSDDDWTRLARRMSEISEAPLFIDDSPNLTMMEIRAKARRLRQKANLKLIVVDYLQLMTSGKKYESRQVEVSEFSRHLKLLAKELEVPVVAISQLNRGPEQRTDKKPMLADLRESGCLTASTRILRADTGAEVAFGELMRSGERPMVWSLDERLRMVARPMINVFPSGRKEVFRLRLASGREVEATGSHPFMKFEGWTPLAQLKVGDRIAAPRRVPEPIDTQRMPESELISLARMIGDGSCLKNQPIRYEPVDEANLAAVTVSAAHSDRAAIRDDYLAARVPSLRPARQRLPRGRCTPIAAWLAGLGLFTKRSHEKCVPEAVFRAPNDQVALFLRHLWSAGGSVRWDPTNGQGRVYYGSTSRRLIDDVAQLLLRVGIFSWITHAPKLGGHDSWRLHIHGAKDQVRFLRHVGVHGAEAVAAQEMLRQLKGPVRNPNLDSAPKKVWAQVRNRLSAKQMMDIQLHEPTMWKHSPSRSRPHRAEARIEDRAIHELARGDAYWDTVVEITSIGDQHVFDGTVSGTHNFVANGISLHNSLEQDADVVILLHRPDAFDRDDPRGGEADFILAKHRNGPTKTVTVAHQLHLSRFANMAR

Protein RecA = target: T3, Protein RecA (Mycobacterium tuberculosis, UniProt P9WHJ3); assay: Fluorescence Cell-Free Homogeneous Dose Retest to Identify Inhibitors of RecA-Intein Splicing Activity. [Related pubchem assays (depositor defined):AID2097, AID2223, AID489010, AID492950]; type: functional
T3 sequence (P9WHJ3 whole entry): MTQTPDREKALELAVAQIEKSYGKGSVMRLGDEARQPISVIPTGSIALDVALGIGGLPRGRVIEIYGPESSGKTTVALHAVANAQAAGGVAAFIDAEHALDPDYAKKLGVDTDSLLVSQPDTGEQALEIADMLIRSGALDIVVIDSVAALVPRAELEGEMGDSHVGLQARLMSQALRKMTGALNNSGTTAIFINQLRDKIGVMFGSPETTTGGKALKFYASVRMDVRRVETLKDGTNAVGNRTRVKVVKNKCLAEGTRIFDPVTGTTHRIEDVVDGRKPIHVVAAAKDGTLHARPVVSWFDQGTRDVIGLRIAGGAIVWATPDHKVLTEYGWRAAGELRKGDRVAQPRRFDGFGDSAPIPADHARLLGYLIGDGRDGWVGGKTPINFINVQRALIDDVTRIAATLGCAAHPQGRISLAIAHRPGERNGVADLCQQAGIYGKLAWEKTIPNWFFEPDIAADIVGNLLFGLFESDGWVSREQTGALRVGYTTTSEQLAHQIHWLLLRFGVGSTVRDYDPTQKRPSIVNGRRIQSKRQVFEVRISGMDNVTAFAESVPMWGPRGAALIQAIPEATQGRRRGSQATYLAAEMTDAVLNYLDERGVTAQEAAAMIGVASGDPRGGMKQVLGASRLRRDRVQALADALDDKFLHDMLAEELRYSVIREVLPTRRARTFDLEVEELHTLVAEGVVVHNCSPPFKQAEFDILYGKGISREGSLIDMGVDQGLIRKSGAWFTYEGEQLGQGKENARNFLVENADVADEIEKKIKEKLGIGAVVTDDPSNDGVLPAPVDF

HEK293 [10] = assay: inhibition of NOD1-driven NF-kB reporter – cell-based, luminescence, uHTS, primary screen (AID 1578); type: functional; details: Homo sapiens
HEK293 [11] = assay: cells; type: functional, cell-based; details: Homo sapiens
HEK293 [12] = assay: cells; type: functional, cell-based; details: Homo sapiens; remark: listed apart in the source
[13] = target: Nucleotide-binding oligomerization domain-containing protein 2 (Homo sapiens, UniProt Q9HC29); assay: inhibition of NOD2-driven NF-kB reporter – cell-based, luminescence, uHTS, HEK293 (AID 1566); type: functional
HEK293 [14] = assay: NOD2 signaling inhibitors in MDP-stimulated cells, cell-based, uHTS, luminescence (AID 2001); type: functional; details: Homo sapiens
HEK293 [15] = assay: cells; type: functional, cell-based; details: Homo sapiens; remark: listed apart in the source
Tumor necrosis factor = Tumor necrosis factor (Homo sapiens, UniProt P01375); assay: analog potency on TNFa NF-kB signaling – cell-based, revised, SAR follow-up (AID 2337); type: functional
[16] = target: T4, Nucleotide-binding oligomerization domain-containing protein 1 (Homo sapiens, UniProt Q9Y239); assay: blockers of NOD1 pathway activity – revised, SAR follow-up (AID 2333); type: functional
T4 sequence (Q9Y239 whole entry): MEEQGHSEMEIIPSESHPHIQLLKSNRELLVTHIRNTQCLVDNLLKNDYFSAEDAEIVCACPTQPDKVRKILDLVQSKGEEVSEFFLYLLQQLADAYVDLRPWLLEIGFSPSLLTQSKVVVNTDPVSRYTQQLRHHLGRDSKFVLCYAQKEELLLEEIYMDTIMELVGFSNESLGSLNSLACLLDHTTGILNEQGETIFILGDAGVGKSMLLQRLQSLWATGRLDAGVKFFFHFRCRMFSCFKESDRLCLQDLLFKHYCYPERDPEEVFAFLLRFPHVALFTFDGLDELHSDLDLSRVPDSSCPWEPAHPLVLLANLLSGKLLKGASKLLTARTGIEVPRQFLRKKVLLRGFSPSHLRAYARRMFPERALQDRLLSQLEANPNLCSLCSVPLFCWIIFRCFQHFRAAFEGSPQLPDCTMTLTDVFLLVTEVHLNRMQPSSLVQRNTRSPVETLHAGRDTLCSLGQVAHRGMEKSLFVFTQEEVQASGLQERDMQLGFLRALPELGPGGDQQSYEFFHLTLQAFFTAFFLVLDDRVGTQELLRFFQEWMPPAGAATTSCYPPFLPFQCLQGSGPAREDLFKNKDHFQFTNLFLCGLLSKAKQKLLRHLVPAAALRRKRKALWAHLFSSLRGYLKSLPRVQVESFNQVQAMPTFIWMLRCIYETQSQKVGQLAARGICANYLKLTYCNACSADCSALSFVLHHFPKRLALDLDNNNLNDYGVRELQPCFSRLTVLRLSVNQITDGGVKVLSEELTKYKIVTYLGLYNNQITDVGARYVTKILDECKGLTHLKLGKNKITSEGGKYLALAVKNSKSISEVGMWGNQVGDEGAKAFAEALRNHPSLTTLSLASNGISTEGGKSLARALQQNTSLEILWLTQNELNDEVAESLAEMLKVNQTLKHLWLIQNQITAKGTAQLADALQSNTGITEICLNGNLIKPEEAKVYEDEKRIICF

HEK293 [17] = assay: cells; details: Homo sapiens
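Wherever CC50 is given: cells exposed to compound for 72 hours before luminescence readout.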

Tumor necrosis factor, sequence (P01375 whole entry, the tested form may be a part): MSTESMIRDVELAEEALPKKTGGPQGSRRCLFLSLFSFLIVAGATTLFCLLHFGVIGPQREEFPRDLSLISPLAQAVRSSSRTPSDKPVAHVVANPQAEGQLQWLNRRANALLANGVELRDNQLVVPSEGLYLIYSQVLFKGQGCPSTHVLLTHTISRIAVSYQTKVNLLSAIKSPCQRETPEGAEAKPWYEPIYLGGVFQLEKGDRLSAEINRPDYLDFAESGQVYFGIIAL
G-protein coupled receptor 55, sequence (Q9Y2T6 whole entry): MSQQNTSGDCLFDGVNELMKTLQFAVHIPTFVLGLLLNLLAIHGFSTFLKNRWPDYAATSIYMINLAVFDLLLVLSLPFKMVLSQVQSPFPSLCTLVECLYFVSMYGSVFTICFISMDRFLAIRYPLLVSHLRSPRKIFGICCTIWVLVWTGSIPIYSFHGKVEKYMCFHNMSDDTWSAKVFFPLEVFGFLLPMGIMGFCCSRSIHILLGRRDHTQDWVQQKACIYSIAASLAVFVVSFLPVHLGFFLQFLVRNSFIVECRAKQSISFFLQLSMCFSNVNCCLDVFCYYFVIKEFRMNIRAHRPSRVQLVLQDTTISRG
Glutathione S-transferase omega-1, sequence (P78417 whole entry): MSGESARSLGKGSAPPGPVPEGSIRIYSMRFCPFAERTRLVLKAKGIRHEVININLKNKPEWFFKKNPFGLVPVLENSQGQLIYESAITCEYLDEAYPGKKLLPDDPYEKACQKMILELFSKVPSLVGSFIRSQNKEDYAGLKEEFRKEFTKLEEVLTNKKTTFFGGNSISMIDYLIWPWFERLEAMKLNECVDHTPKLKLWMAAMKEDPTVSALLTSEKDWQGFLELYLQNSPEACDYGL
Nucleotide-binding oligomerization domain-containing protein 2, sequence (Q9HC29 whole entry, the tested form may be a part): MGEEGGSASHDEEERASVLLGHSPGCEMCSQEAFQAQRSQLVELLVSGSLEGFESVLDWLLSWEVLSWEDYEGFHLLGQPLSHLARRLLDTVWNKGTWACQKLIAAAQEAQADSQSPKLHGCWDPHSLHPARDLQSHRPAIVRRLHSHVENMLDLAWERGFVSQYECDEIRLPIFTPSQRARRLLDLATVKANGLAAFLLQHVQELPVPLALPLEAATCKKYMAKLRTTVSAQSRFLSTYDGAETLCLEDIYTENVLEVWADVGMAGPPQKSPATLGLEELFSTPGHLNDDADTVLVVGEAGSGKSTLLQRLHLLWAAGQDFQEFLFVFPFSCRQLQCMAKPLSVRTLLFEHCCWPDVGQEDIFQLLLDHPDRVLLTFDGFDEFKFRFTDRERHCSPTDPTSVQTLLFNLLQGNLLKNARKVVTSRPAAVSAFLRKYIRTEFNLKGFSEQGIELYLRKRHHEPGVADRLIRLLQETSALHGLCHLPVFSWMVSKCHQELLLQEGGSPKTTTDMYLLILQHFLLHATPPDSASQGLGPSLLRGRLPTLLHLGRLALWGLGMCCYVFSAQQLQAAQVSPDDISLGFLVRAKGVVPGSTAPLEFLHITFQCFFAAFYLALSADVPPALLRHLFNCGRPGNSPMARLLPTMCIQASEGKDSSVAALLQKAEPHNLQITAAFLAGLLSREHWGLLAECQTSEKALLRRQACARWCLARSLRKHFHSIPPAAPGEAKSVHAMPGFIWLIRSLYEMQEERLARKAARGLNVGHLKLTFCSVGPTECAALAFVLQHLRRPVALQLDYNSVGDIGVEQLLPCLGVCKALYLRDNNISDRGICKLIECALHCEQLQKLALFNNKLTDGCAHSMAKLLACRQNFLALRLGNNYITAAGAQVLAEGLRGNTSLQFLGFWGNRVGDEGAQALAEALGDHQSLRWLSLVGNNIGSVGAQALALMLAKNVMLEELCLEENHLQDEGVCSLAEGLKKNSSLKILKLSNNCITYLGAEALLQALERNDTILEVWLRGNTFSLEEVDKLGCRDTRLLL

## S=C(Nc1ccc(Cl)cc1Cl)Nc1ccccc1Oc1ccccc1
[1]
  IC50: 4.08 µM (active)
Cryptococcus neoformans
  AC50: 44.9 µM (active)

## O=C(NC1CCCCC1)C(c1cccnc1)N(C(=O)CCl)c1cccc(Cl)c1 (stereo not given)
BJ [2]
  EC50: 0.349 µM (active)
BJ [3]
  EC50: 5.05 µM (active)
BJ [4]
  EC50: 7.06 µM (inconclusive)
[5]
  EC50: 2.77 µM (active)
[6]
  IC50: 0.038 µM (active)
[7]
  CC50: 0.82 µM (active)
[8]
  AC50: 4.16 µM (active)
[9]
  AC50: 3.23 µM (active)
Protein RecA
  EC50: 0.467 µM (active)

## COc1ccc(N2CCN(C(=O)c3ccc(CNS(=O)(=O)c4ccc(C)cc4)cc3)CC2)cc1
HEK293 [10]
  EC50: 7.09 µM (active)
HEK293 [11]
  IC50: 10.1 µM (active)
HEK293 [12]
  IC50: 17.5 µM (active)
[13]
  EC50: > 20 µM (inactive)
HEK293 [14]
  IC50: 12.5 µM (inactive)
HEK293 [15]
  IC50: > 20 µM (inactive)
Tumor necrosis factor
  IC50: > 20 µM (inactive)
[16]
  IC50: > 20 µM (inactive)
HEK293 [17]
  IC50: > 20 µM (inactive)
